From ChEMBL document CHEMBL5357078, “Synthesis and Structural Optimization of ATG4B Inhibitors for the Attenuation of Autophagy in Glioblastoma” (ACS Med Chem Lett, 2024)
Active and inactive are the calls of the source.

What was measured:
Format in all cases: functional, cell-based
[1] = system: GSC83; assay: Induction of autophagy in human GSC83 cells assessed as degradation of p62/SQSTM1 substrate incubated for 72 hrs by immunoblotting analysis
[2] = system: GSC83; assay: Induction of autophagy in human GSC83 cells assessed as inhibition of sphere formation upto 100 uM incubated for 7 days; conditions: time 7.0 day
[3] = system: GSC576; assay: Induction of autophagy in human GSC576 cells assessed as inhibition of sphere formation upto 100 uM incubated for 7 days; conditions: time 7.0 day
[4] = system: GSC576; assay: Induction of autophagy in human GSC576 cells assessed as inhibition of ATG4B-induced LC3-1 to LC3-2 conversion incubated for 72 hrs by immunoblotting analysis
[5] = system: GSC576; assay: Induction of autophagy in human GSC576 cells assessed as degradation of p62/SQSTM1 substrate incubated for 72 hrs by immunoblotting analysis
[6] = system: GSC83; assay: Induction of autophagy in human GSC83 cells assessed as inhibition of ATG4B-induced LC3-1 to LC3-2 conversion incubated for 72 hrs by immunoblotting analysis
[7] = system: GSC83; assay: Induction of autophagy in human GSC83 cells assessed as inhibition of sphere formation upto 10 uM incubated for 7 days; conditions: time 7.0 day
[8] = system: GSC83; assay: Antiproliferative activity against human GSC83 cells assessed as reduction in cell viability upto 100 uM incubated for 72 hrs by celltiter glo luminescent assay
[9] = system: GSC576; assay: Antiproliferative activity against human GSC576 cells assessed as reduction in cell viability upto 100 uM incubated for 72 hrs by celltiter glo luminescent assay
[10] = system: GSC576; assay: Induction of autophagy in human GSC576 cells assessed as inhibition of sphere formation upto 10 uM incubated for 7 days; conditions: time 7.0 day

Measured: Activity

S=C(Nc1ccccn1)c1ccccn1
active: [1] | [2] | [3] | [4] | [5] | [6]

S=C(Nc1ccccn1)c1ccc2ccccc2n1
active: [7] | [1] | [4] | [8] | [5] | [9] | [6] | [10]
